According to ChEMBL document CHEMBL3507680, “University of Dundee, Gates Library screen for HepG2 cell viability”:

Experiment: Human HepG2 cell viability assay in 384 well format
Assay type: toxicity, cell-based
Parameters: dose 125 nL, time 70.5 hour; concentration not given beside the values
Conditions: HepG2 cells, read-out: Inhibition

Structure (SMILES)	cytotoxicity at 70.5 h [%]
CCc1noc(CNCC2CCCN2c2cccnn2)n1 (stereo not drawn)	1.91
CCc1nc(C2CCCN(C(=O)CC3CCOCC3)C2)no1 (stereo not drawn)	-8.83
CS(=O)(=O)NC1CCCN(C(=O)NCc2ccoc2)C1 (stereo not drawn)	0.0228
CS(=O)(=O)NC1CCCN(C(=O)NCc2cccc(F)c2)C1 (stereo not drawn)	-4.51
Cc1ccc(C(CNC(=O)Nc2cn[nH]c2)N2CCOCC2)o1 (stereo not drawn)	-1.26
CS(=O)(=O)NC1CCN(C(=O)NCc2cccnc2)CC1	2.6
COc1ccnc(N2CCN(C(=O)Cc3ccsc3)CC2)n1	-8.71
Cc1nnc(C2Cc3ccccc3CN2Cc2c(C)noc2C)o1 (stereo not drawn)	-1.11
CCc1nc(C2CCCN(C(=O)NC3CC3)C2)no1 (stereo not drawn)	-0.741
Cc1ncc(C(=O)NC2CCc3nccn3C2)c(C(C)C)n1 (stereo not drawn)	-3.83
CCc1n[nH]c(C2CN(C(=O)c3ccnc(C4CC4)n3)CCO2)n1 (stereo not drawn)	-5.63
COc1ccc(CC(=O)N2CCCC2Cn2cc(C)cn2)cc1OC (stereo not drawn)	-0.349
O=C(CCc1ccccn1)N1CCCN(C(=O)CC2CCCC2)CC1	4.27
CCn1cc(CN2CCCN(C(=O)c3ccccc3C)CC2)cn1	-2.18
Cc1nn(C)c(Cl)c1C1CCCN1C(=O)c1ccnc(N(C)C)c1 (stereo not drawn)	-2.23
Cc1nc(CN(C)C2CCN(CCc3ccc4c(c3)CCO4)C2)no1 (stereo not drawn)	1.48
Cc1nc(CN(C)C2CCN(Cc3cccc(F)c3)C2)no1 (stereo not drawn)	1.26
CCc1noc(CNC2CCCN(Cc3noc(C4CC4)n3)C2)n1 (stereo not drawn)	-5.98
CNc1cc2c(nn1)CCN(C(=O)c1coc(Br)c1)C2	17.6
CCc1noc(C)c1C(=O)N1CCCN(Cc2cscn2)CC1	-10.2

Structure (SMILES)	cytotoxicity at 70.5 h [%]
CCn1cc(CN2CCCN(C(=O)c3ccccc3OC)CC2)cn1	-15.6
CCn1cc(CN2CCCN(C(=O)c3ccc(C)o3)CC2)cn1	20.7
O=C(NCCC(=O)N1CCCc2ccccc21)c1ccc(F)cc1F	-14.2
Cc1nc(CN(C)C2CCN(Cc3cccc4c3OCCO4)C2)no1 (stereo not drawn)	28.1
COc1c(CNCC(O)c2cccc(F)c2)c(C)nn1C (stereo not drawn)	-9.63
CC(C)C(=O)NCc1ccc(N(C)C)cc1	-4.78
CN(C)c1cc(CNC(=O)c2ccc(O)nc2)ccn1	14.5
Cn1cnnc1C1CCCN(C(=O)c2ccccn2)C1 (stereo not drawn)	16
COc1c(CNCC(O)c2ccccc2)c(C(C)C)nn1C (stereo not drawn)	-9.73
COc1c(CNCC(O)c2ccc(C)cc2)c(C(C)C)nn1C (stereo not drawn)	-3.08
CCn1cc(CN2CCCN(C(=O)c3ccoc3)CC2)cn1	9.04
CCn1cc(CN2CCCN(C(=O)c3cccn3C)CC2)cn1	-7.92
COc1c(C2CCCN2C(=O)c2ccc(O)nc2)c(C)nn1C (stereo not drawn)	-8.59
COc1c(C2CCCN2C(=O)c2ccc(N(C)C)nn2)c(C)nn1C (stereo not drawn)	-8.95
O=C(NCC(=O)N1CCCc2ccccc21)c1c(O)cc(F)cc1F	0.334
CC(C)Cn1[nH]cc/c1=N\C(=O)CN1CCOC(Cn2cccn2)C1 (stereo not drawn)	21.5
Cc1ccc(CN2CCCN(Cc3cscn3)CC2)cc1	3.58
N#CCc1ccc(OCC(=O)N2CCCC(n3cccn3)C2)cc1 (stereo not drawn)	-10.5
O=C(c1cccc2c1OCCO2)N1CCCC1Cn1cccn1 (stereo not drawn)	-8.07
Cc1cc(NC(=O)CN2CCOC(Cn3nc(C)cc3C)C2)n(C)n1 (stereo not drawn)	-8.28

Structure (SMILES)	cytotoxicity at 70.5 h [%]
COc1ccc(CCCC(=O)N2CCCC(n3cccn3)C2)cc1 (stereo not drawn)	14.5
COc1c(C)cnc(CN(C)C(=O)c2ccccc2F)c1C	-4.79
Cn1cnnc1C1CCCN(C(=O)CCc2ccc3c(c2)OCO3)C1 (stereo not drawn)	15.2
COc1ccc(NC(=O)N2CCCCCC2c2ccncc2)cn1 (stereo not drawn)	-6.87
COc1ccc(NC(=O)N2CCCC2c2ccncc2)cn1 (stereo not drawn)	-11.6
N#Cc1cccc(CN2CCN(Cc3cscn3)CC2)c1	-10
Cc1noc2ncc(C(=O)N3CCCC(n4cccn4)C3)cc12 (stereo not drawn)	-2.98
N#Cc1ccc(OCC(=O)N2CCCC(n3cccn3)C2)cc1 (stereo not drawn)	-4.85
Cc1nnc(NC(=O)CN2CCOC(Cn3cccn3)C2)s1 (stereo not drawn)	-6.17
O=C(c1cccc2c1OCCO2)N1CCCCC1Cn1cccn1 (stereo not drawn)	-6.1
Cc1cnn(CC2CCCCN2C(=O)c2cccc3c2OCO3)c1 (stereo not drawn)	-8.6
CC(C)c1nc2n(n1)CC(NCc1nc(-c3ccccn3)no1)CC2 (stereo not drawn)	-7.49
CC(C)c1nc2n(n1)CC(NCc1nc(-c3ccsc3)no1)CC2 (stereo not drawn)	-11.5
Cc1cc(C(=O)N2CCCC(n3nc(C)cc3C)C2)on1 (stereo not drawn)	-10.1
Cc1cc(C)n(C2CCCN(C(=O)c3c(C)noc3C)C2)n1 (stereo not drawn)	-7.4
Cc1n[nH]c(C2CN(Cc3nnc(C4CC4)n3C)CCO2)n1 (stereo not drawn)	-6.69
CCc1nc(CN2CCCN(CC(=O)Nc3cccnc3)CC2)no1	8.11
Cc1cc(CN(C)C2CCCN(Cc3noc(C)n3)C2)on1 (stereo not drawn)	17.4
